# In the NIST ThermoML archive (doi:10.1016/j.jct.2014.05.015):
# Numbers after ± are expanded uncertainties.
# Test: mn = molality of the nth substance listed, in mol/kg
# Details: 100 kPa, Liquid; for speed of sound: Frequency=3 MHz, Sing-around technique in a fixed-path interferometer; for mass density: Vibrating tube method
compound,measurement,setting,value
C[N+](C)(C)CC(=O)O.[Cl-] [betaine hydrochloride] + O,speed of sound,"293.15 K, m1 = 0.00988",1483.8 ± 1.6 m/s
same,speed of sound,"293.15 K, m1 = 0.02034",1484.8 ± 1.6 m/s
same,speed of sound,"293.15 K, m1 = 0.03199",1486 ± 1.6 m/s
same,speed of sound,"293.15 K, m1 = 0.03929",1486.6 ± 1.6 m/s
same,speed of sound,"293.15 K, m1 = 0.04992",1487.6 ± 1.6 m/s
same,speed of sound,"293.15 K, m1 = 0.05925",1488.4 ± 1.6 m/s
same,mass density,"293.15 K, m1 = 0.00988",998.597 ± 0.26 kg/m3
same,mass density,"293.15 K, m1 = 0.02034",998.988 ± 0.26 kg/m3
same,mass density,"293.15 K, m1 = 0.03199",999.418 ± 0.26 kg/m3
same,mass density,"293.15 K, m1 = 0.03929",999.672 ± 0.26 kg/m3
same,mass density,"293.15 K, m1 = 0.04992",1000.05 ± 0.26 kg/m3
same,mass density,"293.15 K, m1 = 0.05925",1000.37 ± 0.26 kg/m3
same,speed of sound,"298.15 K, m1 = 0.00988",1497.7 ± 1.6 m/s
same,speed of sound,"298.15 K, m1 = 0.02034",1498.7 ± 1.6 m/s
same,speed of sound,"298.15 K, m1 = 0.03199",1499.8 ± 1.6 m/s
same,speed of sound,"298.15 K, m1 = 0.03929",1500.5 ± 1.6 m/s
same,speed of sound,"298.15 K, m1 = 0.04992",1501.3 ± 1.6 m/s
same,speed of sound,"298.15 K, m1 = 0.05925",1502.3 ± 1.6 m/s
same,mass density,"298.15 K, m1 = 0.00988",997.445 ± 0.26 kg/m3
same,mass density,"298.15 K, m1 = 0.02034",997.829 ± 0.26 kg/m3
same,mass density,"298.15 K, m1 = 0.03199",998.253 ± 0.26 kg/m3
same,mass density,"298.15 K, m1 = 0.03929",998.509 ± 0.26 kg/m3
same,mass density,"298.15 K, m1 = 0.04992",998.883 ± 0.26 kg/m3
same,mass density,"298.15 K, m1 = 0.05925",999.196 ± 0.26 kg/m3
same,speed of sound,"303.15 K, m1 = 0.00988",1510 ± 1.6 m/s
same,speed of sound,"303.15 K, m1 = 0.02034",1511 ± 1.6 m/s
same,speed of sound,"303.15 K, m1 = 0.03199",1512.1 ± 1.6 m/s
same,speed of sound,"303.15 K, m1 = 0.03929",1512.8 ± 1.6 m/s
same,speed of sound,"303.15 K, m1 = 0.04992",1513.6 ± 1.6 m/s
same,speed of sound,"303.15 K, m1 = 0.05925",1514.2 ± 1.6 m/s
same,mass density,"303.15 K, m1 = 0.00988",996.042 ± 0.26 kg/m3
same,mass density,"303.15 K, m1 = 0.02034",996.428 ± 0.26 kg/m3
same,mass density,"303.15 K, m1 = 0.03199",996.847 ± 0.26 kg/m3
same,mass density,"303.15 K, m1 = 0.03929",997.099 ± 0.26 kg/m3
same,mass density,"303.15 K, m1 = 0.04992",997.471 ± 0.26 kg/m3
same,mass density,"303.15 K, m1 = 0.05925",997.795 ± 0.26 kg/m3
same,speed of sound,"308.15 K, m1 = 0.00988",1520.7 ± 1.6 m/s
same,speed of sound,"308.15 K, m1 = 0.02034",1521.7 ± 1.6 m/s
same,speed of sound,"308.15 K, m1 = 0.03199",1522.8 ± 1.6 m/s
same,speed of sound,"308.15 K, m1 = 0.03929",1523.5 ± 1.6 m/s
same,speed of sound,"308.15 K, m1 = 0.04992",1524.4 ± 1.6 m/s
same,speed of sound,"308.15 K, m1 = 0.05925",1525.1 ± 1.6 m/s
same,mass density,"308.15 K, m1 = 0.00988",994.425 ± 0.26 kg/m3
same,mass density,"308.15 K, m1 = 0.02034",994.806 ± 0.26 kg/m3
same,mass density,"308.15 K, m1 = 0.03199",995.225 ± 0.26 kg/m3
same,mass density,"308.15 K, m1 = 0.03929",995.477 ± 0.26 kg/m3
same,mass density,"308.15 K, m1 = 0.04992",995.846 ± 0.26 kg/m3
same,mass density,"308.15 K, m1 = 0.05925",996.165 ± 0.26 kg/m3
same,speed of sound,"313.15 K, m1 = 0.00988",1529.8 ± 1.6 m/s
same,speed of sound,"313.15 K, m1 = 0.02034",1530.7 ± 1.6 m/s
same,speed of sound,"313.15 K, m1 = 0.03199",1531.8 ± 1.6 m/s
same,speed of sound,"313.15 K, m1 = 0.03929",1532.4 ± 1.6 m/s
same,speed of sound,"313.15 K, m1 = 0.04992",1533.3 ± 1.6 m/s
same,speed of sound,"313.15 K, m1 = 0.05925",1534.1 ± 1.6 m/s
same,mass density,"313.15 K, m1 = 0.00988",992.605 ± 0.26 kg/m3
same,mass density,"313.15 K, m1 = 0.02034",992.98 ± 0.26 kg/m3
same,mass density,"313.15 K, m1 = 0.03199",993.389 ± 0.26 kg/m3
same,mass density,"313.15 K, m1 = 0.03929",993.638 ± 0.26 kg/m3
same,mass density,"313.15 K, m1 = 0.04992",993.998 ± 0.26 kg/m3
same,mass density,"313.15 K, m1 = 0.05925",994.316 ± 0.26 kg/m3
